Measured values as given in patent US20260216110A1, “COMPOUND USEFUL AS THYROID HORMONE RECEPTOR ß-SELECTIVE THYROID HORMONE ANALOG” (NATIONAL UNIVERSITY CORPORATION TOKAI NATIONAL HIGHER …, priority 2022, published 2026).
“Also recorded” adds a separate entry of the source.

Experiments:
[1] = tested on: ligand-binding domain of THRα or THRβ; assay: Luciferase reporter assay for THRβ selectivity in GloResponse 9XGAL4UAS-luc2P HEK293 cells; assay type: cell-based; conditions: EC50-based, THRα vs THRβ
Procedure: (§1) Specifically, the procedure performed is described below.
The cells used and cell culture were as follows. GloResponse 9XGAL4UAS-luc2P HEK293 cells (Promega) were stably transfected with pFN26A (BIND) (Promega) containing the coding region of the ligand-binding domain of THRα or THRβ. The cells were cultured in DMEM supplemented with 10% FBS, 200 μg/mL Hygromycin, and 750 μg/mL G418 in 90 mm cell culture dishes at 37° C. with 5% CO2. The cells were subcultured every 3 days and used in a luciferase reporter assay.
The cells were suspended in an assay medium (DMEM supplemented with 5% charcoal/dextran-treated FBS, 25 mM HEPES, and a 4 mM L-Alanyl-L-glutamine solution) and seeded at 2×10^4 cells/well in 96-well plates coated with poly-L-lysine. After incubation at 37° C. with 5% CO2 for 24 hours, each test compound was added at various concentrations. The following day, firefly luciferase luminescence was measured using a Dual-Glo Luciferase Assay System (Promega) with a microplate reader (SpectraMax i3, Molecular Devices). The luminescence of Renilla luciferase was used as an internal standard.

[2] = tested on: lipid droplets in hepatocytes; assay: Oil Red O staining of liver sections, high-fat diet mice; assay type: in vivo, C57BL/6J mice; conditions: HFD mice, 1 μmol/kg-day i.p. for 3 weeks, compared to the vehicle
Procedure: Lipid droplets are organelles for storing neutral lipids, such as triglycerides and cholesterol esters. Excessive accumulation of lipid droplets in hepatocytes is characteristic of non-alcoholic fatty liver disease (NAFLD). […] Specifically, the procedure performed is described below.
(§2) Male 7-week-old C57BL/6J mice were individually housed in cages (Innocages, ORIENTAL GIKEN) and kept warm at 23° C. with a 12-hour light-dark cycle starting at 8:00 AM. After 1 week of acclimation, the animals were given either a normal diet (ND; 10 kcal % fat, D12450B, Research Diets) or a high-fat diet (HFD; 60 kcal % fat, D12492, Research Diets). […] The injection was given 6 hours after lights on. Food consumption and body weight were measured weekly. Food and water were provided to the animals ad libitum. After 3 weeks of daily injections, whole blood was collected under isoflurane anesthesia, and the heart and liver were harvested. The liver was frozen and stored at −80° C.
20 μm sections were prepared from the frozen liver tissues using a cryostat (CM3050 S, Leica). The sections were mounted on silane-coated glass slides, dried at room temperature, and stored at −80° C. until use. Before staining, the sections were fixed with 1% PFA/1×PBS, pH of 7.4 (Gibco), for 5 minutes, then immersed in 1×PBS for 5 minutes, distilled water for 5 minutes, and a 60% 2-propanol solution for 1 minute. The Oil Red O staining solution was prepared by mixing 0.36 g of Oil Red O (Sigma) with 120 mL of 2-propanol and 80 mL of distilled water, letting it stand at room temperature for 1 hour, filtering the solution, and then leaving it overnight at 37° C. The sections were immersed in the Oil Red O staining solution at 37° C. for 15 minutes, and then rinsed in 60% 2-propanol for 1 minute and in distilled water for 1 minute. Thereafter, the sections were counterstained with Meyer's hematoxylin. […] The area of red-stained lipid droplets was quantified using Image J (NIH), and the percentage of the stained area in the total image area was calculated. Three sections per mouse were analyzed.

Ldlr, Srebp1c = assay: Further testing: LDL uptake, Ldlr and Srebp1c expression; assay type: in vivo
[3] = Serum ALT level (hepatotoxicity); assay type: in vivo, C57BL/6J mice; conditions: compared to the vehicle
Procedure: as §1
The blood samples collected in Test Example 4 were left to stand at room temperature for 1 hour, and then centrifuged at 4° C., 800×g, for 15 minutes, followed by collecting the supernatant. The serum ALT levels were measured using an Alanine Aminotransferase (ALT or SGPT) Activity Colorimetric/Fluorometric Assay Kit (BioVision) according to the manufacturer's protocol.

[4] = Heart weight (cardiac hypertrophy); assay type: in vivo, C57BL/6J mice
Procedure: as §2
Left ventricular hypertrophy is often associated with hyperthyroidism caused by increased heart rate mediated by hTHRα. Therefore, hTHRβ-selective analogs are expected to avoid this adverse effect on the heart. To examine whether cardiac hypertrophy was induced, the weight of the heart collected in Test Example 4 was measured.

[5] = tested on: left ventricular cardiomyocytes; assay: Transnuclear width of left ventricular cardiomyocytes; assay type: in vivo, C57BL/6J mice; conditions: T3; GC-1 high dose 1 μmol/kg BW/day; ZTA-261 dose not specified
Procedure: as §1
The cardiac tissues collected in Test Example 4 were fixed, dehydrated, and paraffin-infiltrated using an automatic fixation and encapsulation device (Sakura Finetek Japan). Paraffin blocks were prepared using a Tissue Tech TEC 6 (Sakura Finetek Japan), and 5 μm thick transverse sections were prepared using a microtome (Leica). The sections were deparaffinized, rehydrated, and then immersed in a Meyer's hematoxylin solution (FUJIFILM Wako Pure Chemical Industries, Ltd.) and in an eosin solution. Thereafter, the sections were dehydrated and mounted using Entellan new (Merck). The sections were observed under a microscope (BX43; Olympus) at 400× magnification, and digital images were captured using cellSens (Olympus). One hundred cells were randomly selected from the left ventricle of each mouse, and their transnuclear width was measured using Image J (NIH) according to a previously reported method.

[6] = Bone structure parameters (bone metabolism); assay type: in vivo; conditions: mice of Test Example 4
Procedure: The effect of the test compounds on bone metabolism was investigated. Specifically, bone structure parameters (bone volume: BV/TV, trabecular number: Tb.N, trabecular separation: Tb.Sp, trabecular thickness: Tb.Th, connectivity density: Conn.D) were measured using thin sections prepared from the bones of mice in Test Example 4.

THRα = target: T1, THRα (Homo sapiens, UniProt P10827); conditions: relative to T3; cited from earlier work
T1 sequence (P10827 1-410 isoform P10827-2): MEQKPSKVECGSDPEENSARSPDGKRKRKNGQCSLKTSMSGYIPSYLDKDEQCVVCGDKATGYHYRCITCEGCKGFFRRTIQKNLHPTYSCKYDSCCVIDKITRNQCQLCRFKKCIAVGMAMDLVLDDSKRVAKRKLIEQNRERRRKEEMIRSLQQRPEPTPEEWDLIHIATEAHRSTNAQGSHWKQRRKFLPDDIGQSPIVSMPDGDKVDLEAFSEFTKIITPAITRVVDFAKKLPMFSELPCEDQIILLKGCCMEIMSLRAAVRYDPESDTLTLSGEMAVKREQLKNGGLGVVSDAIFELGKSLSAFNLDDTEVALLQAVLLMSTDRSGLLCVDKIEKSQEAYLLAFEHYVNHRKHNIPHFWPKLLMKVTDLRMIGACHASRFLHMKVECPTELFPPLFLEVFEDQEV

full-length human THRα = target: T2, full-length human THRα (Homo sapiens, UniProt P10827); assay: Radioligand-displacement assay ([125I]-T3), THRα; conditions: ratio of the IC50 values THRα/THRβ
T2 sequence (P10827 1-410 isoform P10827-2): T1 sequence (P10827 1-410 isoform P10827-2)
Procedure: Specifically, the assessment was performed as described below by using full-length human THRα and THRβ synthesized by in vitro transcription-translation.
The reaction mixture was incubated overnight at 4° C. A nitrocellulose membrane (Optitran, 0.45 μm in pore size, Whatman) pre-blocked with E-400 buffer was placed in a dot-blot apparatus (Minifold I, GE Healthcare), and the reaction mixture was filtered through the membrane, followed by washing three times with 200 μL of E-400 buffer. […] Radioactive signals were scanned using a Typhoon FLA9000 (GE Healthcare) and quantified by using Image Quant TL software (GE Healthcare). The IC50 value of each competitor drug was calculated by fitting the dose response data to a one-site competition model using GraphPad Prism version 7.0 (GraphPad Software).

Row | Structure (SMILES) | THRβ selectivity [1] | Oil Red O-positive area [2] | cellular uptake of LDL (Ldlr, Srebp1c) | expression of Ldlr (Ldlr, Srebp1c) | expression of Srebp1c (Ldlr, Srebp1c) | serum ALT levels ([3]; high dose 1 μmol/kg BW/day) | heart weight ([4]; high dose 1 μmol/kg BW/day) | width of cardiomyocytes (transnuclear width, left ventricle) [5] | bone structure parameters (BV/TV, Tb.N, Tb.Sp, Tb.Th, Conn.D) [6] | affinity for THRα lower than T3 (THRα) | affinity for THRα lower than affinity for THRβ (full-length human THRα) | serum ALT levels ([3]; low dose 0.1 μmol/kg BW/day) | heart weight ([4]; low dose 0.1 μmol/kg BW/day)
1 | O=C(O)COc1cc(C(F)(F)F)c(Cc2ccc(O)c3ccccc23)c(C(F)(F)F)c1 [ZTA-245] | found to show THRβ selectivity |  |  |  |  |  |  |  |  |  |  |  | 
2 | Cc1cc(OCC(=O)O)cc(C)c1Cc1ccc(O)c(C(C)C)c1 [GC-1] |  | significantly reduced | promoted | increased | decreased | significant increase | significantly increased | increased | significantly worsened | 10 fold | about 30 times |  | 
3 | N[C@@H](Cc1cc(I)c(Oc2ccc(O)c(I)c2)c(I)c1)C(=O)O [T3, triiodothyronine] |  | significantly reduced | promoted | increased | decreased |  | significantly increased | increased | significantly worsened |  |  |  | 
4 | O=C(O)Cc1cc(C(F)(F)F)c(Cc2ccc(O)c3ccccc23)c(C(F)(F)F)c1 [ZTA-261] |  | significantly reduced; also recorded: the most effective, reducing the Oil Red O-positive area to a level comparable to the ND-administered group | promoted | increased | decreased | did not show a significant increase | No such effect was observed | no significant increase | no significant changes |  |  | did not show a significant increase | No such effect was observed
5 | Cc1cc(OCC(=O)O)cc(C)c1Cc1ccc(O)c2ccccc12 [MY-53] | found to show THRβ selectivity |  |  |  |  |  |  |  |  |  |  |  | 
